Results as given in publication PMC11969031, “The homeostasis of β‐alanine is key for Arabidopsis reproductive growth and development” (The Plant Journal, 2025).

How the values were obtained:
[1] = target: T1, Col-0-PYD4 (AT3G08860, recombinant) (Arabidopsis thaliana, UniProt Q9SR86); experiment: coupled NADH assay at […] nm (pyruvate or alanine dehydrogenase); assay type: biochemical; conditions: 50 mM Tris pH 8.0, 30°C
T1 construct: first 31 residues (signal peptide) removed; codon-optimised synthetic gene, pET24a, C-terminal His6; E. coli BL21(DE3); Ni-NTA
T1 sequence (Q9SR86 32-481): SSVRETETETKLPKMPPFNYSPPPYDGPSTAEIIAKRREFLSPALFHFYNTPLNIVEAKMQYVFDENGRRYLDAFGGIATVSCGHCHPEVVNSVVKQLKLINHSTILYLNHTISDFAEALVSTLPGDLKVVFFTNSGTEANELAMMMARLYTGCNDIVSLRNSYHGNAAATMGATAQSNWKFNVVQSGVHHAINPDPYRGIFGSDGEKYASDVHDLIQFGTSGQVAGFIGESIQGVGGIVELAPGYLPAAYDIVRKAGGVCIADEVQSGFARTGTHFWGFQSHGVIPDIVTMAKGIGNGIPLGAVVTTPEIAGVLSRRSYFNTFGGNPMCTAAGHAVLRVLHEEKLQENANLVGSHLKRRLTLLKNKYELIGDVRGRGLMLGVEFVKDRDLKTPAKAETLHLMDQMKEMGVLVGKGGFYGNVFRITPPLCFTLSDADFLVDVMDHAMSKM

[2] = target: T2, AGT2_weak (AT4G39660, recombinant) (Arabidopsis thaliana, UniProt Q940M2); experiment: coupled NADH assay at […] nm (pyruvate dehydrogenase); assay type: biochemical; conditions: amino donor; 50 μM glyoxylate/2-oxoglutarate/pyruvate, 3 μM enzyme, 50 mM Tris pH 8.0, 30°C; degradation direction only
T2 construct: gene AGT2; first 29 residues (signal peptide) of 476 removed; codon-optimised synthetic gene, pET24a, C-terminal His6; E. coli BL21(DE3); Ni-NTA
T2 sequence (Q940M2 30-476): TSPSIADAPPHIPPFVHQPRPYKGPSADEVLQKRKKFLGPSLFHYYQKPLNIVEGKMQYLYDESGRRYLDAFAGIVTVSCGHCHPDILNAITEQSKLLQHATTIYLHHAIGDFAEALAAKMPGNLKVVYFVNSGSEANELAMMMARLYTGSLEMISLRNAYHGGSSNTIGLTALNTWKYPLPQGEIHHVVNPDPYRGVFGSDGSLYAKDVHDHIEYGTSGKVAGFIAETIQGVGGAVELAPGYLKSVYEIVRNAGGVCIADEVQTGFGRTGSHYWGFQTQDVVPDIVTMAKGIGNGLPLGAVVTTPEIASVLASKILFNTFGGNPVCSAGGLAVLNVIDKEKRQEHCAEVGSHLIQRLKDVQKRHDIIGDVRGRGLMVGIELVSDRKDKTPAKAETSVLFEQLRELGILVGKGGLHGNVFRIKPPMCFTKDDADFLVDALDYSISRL

Compound	coupled NADH assay at 340 nm (pyruvate or alanine dehydrogenase) ([1]; amino donor, acceptor not given)	coupled NADH assay at 340 nm (pyruvate dehydrogenase) [2]	coupled NADH assay at 340 nm (pyruvate or alanine dehydrogenase) ([1]; amino donor (positive control enzyme; works in both directions))
NCCC(=O)O [β‐alanine]	PYD4 was also able to use β‐alanine as an amino donor	–	–
C[C@H](N)C(=O)O [L‐alanine]	–	We also detected activity when L‐alanine was used as the amino donor	activity when L‐alanine was used as the amino donor, but unlike PYD4, AGT2 only functions
